Earlier results as cited in US20050002974A1, “Itch-relieving cosmetic or dermatological preparation” (Beiersdorf AG, priority 2002, published 2005).

Assays:
[1] = rubbed into the skin
[2] = used in aqueous solutions

Molecule: CC1CCC(C(C)C)C(O)C1 (centres unmarked) [menthol, Menthol]
- feel on the skin [1]: pleasant cooling feel

Molecule: polyethylene glycol (9) monododecyl ether [polidocanol]
- local anesthetic properties [2]: strong local anesthetic properties
